The values that follow come from patent US11719696B2, “Methods and compounds for diagnosing threonyl-tRNA synthetase-associated diseases and conditions” (The University of Vermont and State Agricultural College, priority 2012, dated 2023).

One test concerns human TARS. The test can be described thus: GTPase (GTP hydrolysis) assay. The conditions noted are these: for change in TARS GTPase activity upon treatment: 10 μM compound. It is filed as biochemical.
In test [1] the test system is HUVECs. The test is described as follows: Endothelial cell proliferation assay (alamarBlue). The conditions noted are these: 10 nM BC194 with 50 ng/ml VEGF, low serum media. It is filed as cell-based, Human. As for the experimental part: Endothelial Cell Proliferation Assay—The […] alamarBlue® (Invitrogen) reagent was used to assess cell proliferation (Ahmed, Gogal et al. 1994). HUVECs were seeded in a 96-well dish (1×10^3 cells/well) and grown for 48 h in EGM®-2 media. Cells were incubated in 0.2% FBS EGM®-2 media or EGM®-2 complete media as indicated; VEGF (50 ng/ml) and media alone served as controls. After 48 h, 72 h, or 96 h in culture, 10 μl/well premixed alamarBlue® (Invitrogen) was added and after 3 h at 37° C. the amount of reduced alamarBlue® was quantified by fluorescence (excitation at 530 nm, emission at 590 nm) on a microplate reader (Synergy™ HT, BioTek, Winooski, Vt.).
Background: The colour change of resazurin is a common sign of viable cells or microbes.

Test [2] deals with Human umbilical vein endothelial cells (HUVECs). The test is described as follows: In vitro endothelial tube formation assay. It is filed as cell-based. As for the experimental part:
In vitro Tube Formation Assay—Tube formation assays were performed as described (Arnaoutova and Kleinman 2010; Cassavaugh, Hale et al., 201). Human Umbilical Vein Endothelial Cells (HUVECs) were seeded in 48-well plates (1.5×10^4 cells/well) coated with 100 μl of Matrigel™ Basement Membrane Matrix Growth Factor Reduced (BD Biosciences, San Jose, Calif.) and incubated in Clonetics® EGM®-2 complete media (Lonza, Annandale, N.J.) or EGM®-2 with reduced serum (0.2% fetal bovine serum). Cells were incubated at 37° C. for 6 h then fixed in 10% formalin. Fixed samples were imaged by phase-contrast microscopy or stained with Oregon Green 488 Phalloidin (Molecular Probes, Eugene, Oreg.) then imaged with fluorescence microscopy (2× objective). Number of tubes and tube lengths (in pixels) were quantified using the Simple Neurite Tracer (Longair, Baker et al. 2011) plug-in on ImageJ software (NIH). Statistical analysis of one-way ANOVA was performed with GraphPad Software. Multiple comparisons were performed using the Tukey Test.

In test [3] the test system is chorioallantoic membrane (CAM). The test can be described thus: Chick chorioallantoic membrane (CAM) assay. Format: in vivo, chicken. The conditions noted are these: for CAM vessel formation / vascularization on application of protein: purified protein applied daily to sponge on CAM, 72 h. As for the experimental part:
Chick Chorioallantoic Membrane Assay—Fertilized chicken eggs (Sunrise Farms, Catskill, N.Y.) day 1-2 post-laying were incubated in a humidified incubator at 37° C. for 72 h. Cleaned eggs were cracked and plated in a sterile 10 cm^2 tissue culture-treated dish and incubated at 37° C. for another 7 days. On developmental day 10, 1 mm sterile gelatin sponge pieces (Surgifoam®; Johnson & Johnson Wound Management, Somerville, N.J.) were placed within the outer one-third of the membrane between large vessels. 40 μg/ml human bFGF and 2 μg/ml human VEGF were used as pro-angiogenic control compounds; 100 μg/mL retinoic acid (Sigma-Aldrich, St. Louis, Mo.) diluted in phosphate-buffered saline (PBS) was used as an angiostatic control. All compounds were applied in 10 μl to the CAM every 24 h for 72 h. Images were taken using a Leica MZ6 stereomicroscope every 24 h. Compounds were scored according to a modified version of Intensity Scoring as previously described (Ribatti, Nico et al. 2006). Briefly, each experimental condition was given a blinded score from 0-5 based on the change in the extent of vessel convergence and formation in proximity to the sponge from day 0 to day 3. Total score is averaged individual experimental condition scores from at least 15 replicates.
Fertilized chicken embryos were cultured ex-ova and, starting at developmental day 10, agents were applied daily to gelfoam sponges on the CAM. Images were recorded daily over 72 h and scored blindly according to a modified version Intensity Scoring as previously described (Ribatti, Nico, 2006). Additional details regarding methods are provided in the Methods and Materials section of Example 1.

The test system of test [4] is SK-OV3 ovarian cancer cells. The test can be described thus: HIF-1α stabilization in hypoxia (Western blot). It is filed as cell-based, Human. As for the experimental part: Co-Immunoprecipitation—Plasmids expressing biotinylatable TARS (pTARS) and myc-tagged VHL (pVHL) were transfected into HEK293 cells, and then extracts were prepared. Biotin-TARS was precipitated using streptavidin-coupled beads. Myc-VHL was precipitated using anti-myc antibodies. Precipitates were separated by SDS-PAGE, transferred and blots probed with anti-TARS antibody or anti-myc (VHL) antibody. Western blot—After treatments, cells were harvested into sample buffer containing: 0.2 M Tris-HCL, 4% SDS, 4% β-mercaptoethanol, 40% glycerol, 4 μM pyronin Y. Extracts were sheared through a 24-gauge syringe. Samples were separated by 10% SDS-PAGE and transferred to nitrocellulose membrane and probed with rabbit polyclonal anti-TARS (1:500; Santa Cruz Biotechnology, Dallas, Tex.) or monoclonal anti-HIF-1α (BD Transduction Laboratories, [BD Biosciences, San Jose, Calif.]) (Lounsbury, Beddow et al., 1994). […] Major bands and their empty vector counterparts were detected using SilverSNAP Stain Kit II (Pierce) and excised. […] Peptides were analyzed by electospray ionization (ESI) liquid chromatography mass spectrometry (LC-MS). […] Spectra were obtained using collision-induced dissociation with an LTQ linear quadrupole ion trap-Orbitrap mass spectrometer (Thermo Electro, San Jose, Calif.) and analyzed using SEQUEST (Bioworks software package, version 3.3.1; Thermo Electron, San Jose, Calif.). […]
(A western blot detects proteins with antibodies after separation by electrophoresis.)

For test [5], the system named is HUVECs. The test can be described thus: TARS mRNA by quantitative RT-PCR. It is filed as cell-based, Human. The conditions noted are these: HUVECs exposed to 50 ng/ml. As for the experimental part: Quantitative RT-PCR—Total RNA was extracted from cells using the RNeasy column protocol and cDNA was generated using an Omniscript reverse transcriptase assay according to the manufacturer's instructions (Qiagen, Frederick, Md.). Primers and probes for TARS and β2-microglobulin were Assays-on-Demand (Applied Biosystems, [Life Technologies, Carlsbad, Calif.]). RT-qPCR was performed using an ABI prism 7700 Sequence Detection System (Applied Biosystems). The relative quantity of mRNA level was determined using the comparative CT (ΔΔCT) method using β2-microglobulin to normalize mRNA level (Cassavaugh, Hale et al. 2011).

Setting [6] is: canonical substrate added to human TARS.

Where a chain is given by its changes, count along the chain named. Names may count otherwise.

As to `Nc1ncnc2c1ncn2[C@@H]1O[C@H](COP(=O)(O)OP(=O)(O)OP(=O)(O)O)[C@@H](O)[C@H]1O` [ATP], in the test on human TARS (setting [6]), the “decrease in GTPase activity” value is listed as 77%.

For the molecule `C[C@@H]1C[C@H](C)C[C@H](C)[C@@H](O)CC(=O)O[C@H]([C@@H]2CC[C@H]2C(=O)O)C/C=C/C=C(/C#N)[C@H](O)[C@@H](C)C1` [BC194, reference compound], in the test with human TARS, the “change in TARS GTPase activity upon treatment” value is “no observable change”. Moreover, the “effect on VEGF proliferative response” value in the test on HUVECs [1] is “did not significantly reduce”. In addition, the tube length result in test [2] (HUVECs on Matrigel, range of BC194 concentrations, 6 h) is “unaffected”. Besides, the “concentration required to affect tube formation relative to that required to detect unfolded protein response (phospho-eIF2a) and apoptosis (cleaved caspase-3)” value in test [2] (fold lower) was determined as 100 fold. Also, the “CAM vessel formation with inhibitor” value in test [3] (daily application to gel sponge, basal level and after stimulation with bFGF or VEGF) is “inhibited vessel formation”. The HIF-1α transcription entry in test [4] is “no change”.

Take `C[C@@H]1C[C@H](C)C[C@H](C)[C@@H](O)CC(=O)O[C@H]([C@@H]2CCC[C@H]2C(=O)O)C/C=C/C=C(/C#N)[C@H](O)[C@@H](C)C1` [borrelidin, reference compound]: the “change in TARS GTPase activity upon treatment” value in the test with human TARS is recorded as “no observable change”. Moreover, the HIF-1α transcription result in test [4] is on record as “no change”.

As to `C[C@@H](O)[C@H](N)C(=O)O` [threonine], the “increase in GTPase activity” value in the test on human TARS (setting [6]) is recorded as 26%.

Take “LARS: N-terminal His6-tagged human leucyl tRNA synthetase purified from E. coli”: the “CAM vessel formation / vascularization on application of protein” value (“CAM vessel formation / vascularization” for short) in test [3] is given as “no observable effect”.

On to TNF-α, for which the “TARS transcription (TARS mRNA)” value with HUVECs [5] is recorded as “do not induce TARS transcription”.

In the case of VEGF, the “TARS transcription (TARS mRNA)” value in the test with HUVECs [5] is given as “do not induce TARS transcription”.

B1: L567V TARS: BC194-resistant (borrelidin-resistant) L567V mutant of human TARS (protein, UniProt P26639 1-723, looked up, variant L567V)
Threonine--tRNA ligase 1, …: MFEEKASSPSGKMGGEEKPIGAGEEKQKEGGKKKNKEGSGDGGRAELNPWPEYIYTRLEMYNILKAEHDSILAEKAEKDSKPIKVTLPDGKQVDAESWKTTPYQIACGISQGLADNTVIAKVNNVVWDLDRPLEEDCTLELLKFEDEEAQAVYWHSSAHIMGEAMERVYGGCLCYGPPIENGFYYDMYLEEGGVSSNDFSSLEALCKKIIKEKQAFERLEVKKETLLAMFKYNKFKCRILNEKVNTPTTTVYRCGPLIDLCRGPHVRHTGKIKALKIHKNSSTYWEGKADMETLQRIYGISFPDPKMLKEWEKFQEEAKNRDHRKIGRDQELYFFHELSPGSCFFLPKGAYIYNALIEFIRSEYRKRGFQEVVTPNIFNSRLWMTSGHWQHYSENMFSFEVEKELFALKPMNCPGHCLMFDHRPRSWRELPLRLADFGVLHRNELSGALTGLTRVRRFQQDDAHIFCAMEQIEDEIKGCLDFLRTVYSVFGFSFKLNLSTRPEKFLGDIEVWDQAEKQLENSLNEFGEKWELNSGDGAFYGPKIDIQIKDAIGRYHQCATIQLDFQVPIRFNLTYVSHDGDDKKRPVIVHRAILGSVERMIAILTENYGGKWPFWLSPRQVMVVPVGPTCDEYAQKVRQQFHDAKFMADIDLDPGCTLNKKIRNAQLAQYNFILVVGEKEKISGTVNIRTRDNKVHGERTISETIERLQQLKEFRSKQAEEEF
Consider B1, for which the “sensitivity of the protein's CAM angiogenic effect to BC194” value in test [3] (protein co-applied with BC194) is “not inhibited”. Moreover, in test [3], the “CAM vessel formation / vascularization” value is given as “stimulated vessel formation”.

B2: R442A TARS: aminoacylation-deficient human TARS mutant, active site Arg442 substituted with alanine (protein, UniProt P26639 1-723, looked up, variant R442A)
Threonine--tRNA ligase 1, …: B1 Threonine--tRNA ligase 1, … with R442A, V567L
In the case of B2, the “CAM vessel formation / vascularization” value in test [3] is recorded as “virtually indistinguishable from wild type”.
